Where “and” joins values, the source holds several entries; their conditions need not be identical. Equal values may be shown once.

The assay concerns whole blood. Nature of the assay: Calcium Gluconate (CG) Powder Test: coagulation of whole blood with varying CG amounts. The procedure: A standard amount of ACD-A anticoagulant and Kaoiln powder per 1 ml of whole blood was used • 2 ml of ACD-A for 15 ml blood=0.133 ml ACD-A/1 ml blood • 28 mg Kaolin powder for 15 ml blood=1.87 mg Kaolin/1 ml blood
Different amounts of CG where tested-CG particle size after sifting is 125 micron • 20 mg for 15 ml of blood=1.33 mgCG/1 ml blood • 50 mg for 15 ml of blood=3.33 mgCG/1 ml blood • 85 mg for 15 ml of blood=5.66 mgCG/1 ml blood • 110 mg for 15 ml of blood=7.33 mgCG/1 ml blood • 140 mg for 15 ml of blood=9.33 mgCG/1 ml blood
Coagulation time and clot structure strength were documented. Blood samples of 5 different volunteers were used.

Where [1] appears, read: 20 mg CG for 15 ml blood, Average of 5 volunteers.
Where [2] appears, read: 50 mg CG for 15 ml blood, Average of 5 volunteers.
The mark [3] stands for this setting: 85 mg CG for 15 ml blood, Average of 5 volunteers.
Setting [4] is: 110 mg CG for 15 ml blood, Average of 5 volunteers.
The mark [5] stands for this setting: 140 mg CG for 15 ml blood, Average of 5 volunteers.

For the substance Calcium Gluconate [CG], the Coagulation time runs as follows: (20 mg CG for 15 ml blood, 2 ml ACD-A, 28 mg Kaolin, individual volunteers #1-#5, good time is under 6 minutes) 17 and 14 and 12 and 14.5 and 15; under setting [1], 14.5; (50 mg CG for 15 ml blood, 2 ml ACD-A, 28 mg Kaolin, individual volunteers #1-#5, good time is under 6 minutes) 6.7 and 5.4 and 6 and 6.6 and 6.8; under setting [2], 6.3; (85 mg CG for 15 ml blood, 2 ml ACD-A, 28 mg Kaolin, individual volunteers #1-#5, good time is under 6 minutes) 4.8 (2×) and 4.6 (2×) and 4.7; under setting [3], 4.88. Moreover, the Coagulation time by setting is: (110 mg CG for 15 ml blood, 2 ml ACD-A, 28 mg Kaolin, individual volunteers #1-#5, good time is under 6 minutes) 4.7 and 5.2 and 4.6 and 4.9 and 5; under setting [4], 4.7; (140 mg CG for 15 ml blood, 2 ml ACD-A, 28 mg Kaolin, individual volunteers #1-#5, good time is under 6 minutes) 4.8 and 4.7 and 5 and 5.2 and 4.9; under setting [5], 4.92. Also, the Clot strength entry is on record as “Low” under setting [1]; “Low” (20 mg CG for 15 ml blood, individual volunteers, visual); “Medium” under setting [2]; “Medium” (50 mg CG for 15 ml blood, individual volunteers, visual); “Strong” under setting [3]; “Strong” (85 mg CG for 15 ml blood, individual volunteers, visual). The Clot strength entry by setting is: under setting [4], “Strong”; (110 mg CG for 15 ml blood, individual volunteers, visual) “Strong”; under setting [5], “Strong”; (140 mg CG for 15 ml blood, individual volunteers, visual) “Strong”.

Values taken from patent US12364713B2, “Coagulation mold, a kit and a method for preparing a coagulated blood mass” (Reddress Ltd., priority 2022, dated 2025).
